Reference: ChEMBL document CHEMBL1201862, “PubChem BioAssay data set” (2004)
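Compound exposure: 48 hours, 5 concentrations, 96-well plates. GI50: concentration for 50% inhibition of growth.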 Activity calls are given as the source filed them. Cut-off read from the data, not from the text of the source: active = GI50 up to about 1.1 µM and inactive = higher.

How the values were obtained:
Experiment in all cases: NCI anticancer screen, dose series, 48 h
SR = system: SR
K562 = system: K562
M14 = system: M14
RXF 393 = system: RXF 393
UACC-62 = system: UACC-62
NCI-H23 = system: NCI-H23
ACHN = system: ACHN
MOLT-4 = system: MOLT-4
LOX IMVI = system: LOX IMVI
A549 = system: A549
786-0 = system: 786-0
IGROV-1 = system: IGROV-1
TK-10 = system: TK-10
CAKI-1 = system: CAKI-1
CCRF-CEM = system: CCRF-CEM
SNB-19 = system: SNB-19
OVCAR-4 = system: OVCAR-4
HCT-116 = system: HCT-116
T47D = system: T47D

Compound	GI50 (SR)	GI50 (K562)	GI50 (M14)	GI50 (RXF 393)	GI50 (UACC-62)	GI50 (NCI-H23)	GI50 (ACHN)	GI50 (MOLT-4)	GI50 (LOX IMVI)	GI50 (A549)	GI50 (786-0)	GI50 (IGROV-1)	GI50 (TK-10)	GI50 (CAKI-1)	GI50 (CCRF-CEM)	GI50 (SNB-19)	GI50 (OVCAR-4)	GI50 (HCT-116)	GI50 (T47D)
Oc1ccc2c(c1)OCC1(O)Cc3cc(O)c(O)cc3C21 (configuration not stated)	30.8 µM (inactive)	27.7 µM (inactive)	19.2 µM (inactive)	15.9 µM (inactive)	19.7 µM (inactive)	18.1 µM (inactive)	18.2 µM (inactive)	24.4 µM (inactive)	19.4 µM (inactive)	> 57.7 µM (inactive)	19.5 µM (inactive)	39.6 µM (inactive)	17.4 µM (inactive)	18.1 µM (inactive)	29.7 µM (inactive)	28.7 µM (inactive)	19.1 µM (inactive)	21 µM (inactive)	
CCCC(=O)Oc1ccc(/C=N/NC(N)=S)nc1	30 µM (inactive)	> 100 µM (inactive)	98.6 µM (inactive)	> 100 µM (inactive)	64.1 µM (inactive)	> 100 µM (inactive)	35.6 µM (inactive)	46.8 µM (inactive)	54.3 µM (inactive)	> 100 µM (inactive)	37 µM (inactive)	> 100 µM (inactive)	> 100 µM (inactive)	> 100 µM (inactive)	25.5 µM (inactive)	> 100 µM (inactive)	> 100 µM (inactive)	> 100 µM (inactive)	
C#CCCOC1(OC)N=NC(C)(C)O1 (configuration not stated)	> 100 µM (inactive)	> 100 µM (inactive)	> 100 µM (inactive)	> 100 µM (inactive)	> 100 µM (inactive)	> 100 µM (inactive)	> 100 µM (inactive)	> 100 µM (inactive)	> 100 µM (inactive)	> 100 µM (inactive)	> 100 µM (inactive)	> 100 µM (inactive)			> 100 µM (inactive)	> 100 µM (inactive)	> 100 µM (inactive)	> 100 µM (inactive)	> 100 µM (inactive)
BrCc1ccc2ccc3ccc(CBr)nc3c2n1	1.87 µM (inactive)	2.53 µM (inactive)	2.85 µM (inactive)	2.24 µM (inactive)	3.26 µM (inactive)	5.61 µM (inactive)	2.1 µM (inactive)	1.65 µM (inactive)	1.58 µM (inactive)	13.3 µM (inactive)	2.51 µM (inactive)	4.01 µM (inactive)	2.57 µM (inactive)	3.55 µM (inactive)	0.995 µM (active)	12.7 µM (inactive)	3.5 µM (inactive)	2.34 µM (inactive)	1.42 µM (inactive)
COc1ccc(C(=O)C(c2ccc(OCc3ccccc3)cc2)c2ccc(OCc3ccccc3)cc2)cc1	> 100 µM (inactive)	> 100 µM (inactive)	> 100 µM (inactive)	> 100 µM (inactive)	> 100 µM (inactive)	> 100 µM (inactive)	> 100 µM (inactive)	> 100 µM (inactive)	> 100 µM (inactive)	> 100 µM (inactive)	> 100 µM (inactive)	> 100 µM (inactive)	> 100 µM (inactive)	> 100 µM (inactive)	> 100 µM (inactive)	> 100 µM (inactive)	> 100 µM (inactive)	> 100 µM (inactive)	
CN(CC(=O)O)c1ncc2c(n1)CCCC2	> 100 µM (inactive)	> 100 µM (inactive)	> 100 µM (inactive)	> 100 µM (inactive)	> 100 µM (inactive)	> 100 µM (inactive)	> 100 µM (inactive)	> 100 µM (inactive)	> 100 µM (inactive)	> 100 µM (inactive)	> 100 µM (inactive)	> 100 µM (inactive)	> 100 µM (inactive)	> 100 µM (inactive)	> 100 µM (inactive)	> 100 µM (inactive)	> 100 µM (inactive)	> 100 µM (inactive)	
COc1ccc(C(=C(C#N)C#N)c2ccc(OC)cc2)cc1	59.4 µM (inactive)	> 100 µM (inactive)	> 100 µM (inactive)	> 100 µM (inactive)	> 100 µM (inactive)	> 100 µM (inactive)	> 100 µM (inactive)	> 100 µM (inactive)	> 100 µM (inactive)	> 100 µM (inactive)	> 100 µM (inactive)	> 100 µM (inactive)	> 100 µM (inactive)	> 100 µM (inactive)	33 µM (inactive)	> 100 µM (inactive)	> 100 µM (inactive)	> 100 µM (inactive)	
C[N+](C)(C)CC(=O)NC(=O)N/N=C\C(CC#N)CN(Cc1ccccc1)Cc1ccccc1 (configuration not stated)	> 100 µM (inactive)	> 100 µM (inactive)	> 100 µM (inactive)	> 100 µM (inactive)	> 100 µM (inactive)	> 100 µM (inactive)	> 100 µM (inactive)	> 100 µM (inactive)	> 100 µM (inactive)	> 100 µM (inactive)	> 100 µM (inactive)	> 100 µM (inactive)	> 100 µM (inactive)	> 100 µM (inactive)	> 100 µM (inactive)	> 100 µM (inactive)	> 100 µM (inactive)	> 100 µM (inactive)	
C=CC(C)(C)C1(CC(OC)OC)C(=O)N(C)c2ccccc21 (configuration not stated)	> 25 µM (inactive)	> 25 µM (inactive)	> 25 µM (inactive)	> 25 µM (inactive)	> 25 µM (inactive)	> 25 µM (inactive)	> 25 µM (inactive)		> 25 µM (inactive)	> 25 µM (inactive)	> 25 µM (inactive)			> 25 µM (inactive)	> 25 µM (inactive)	> 25 µM (inactive)	> 25 µM (inactive)	> 25 µM (inactive)	> 25 µM (inactive)
Cc1cc(O)nc(CNC(=O)c2ccc3ccccc3c2)n1	> 100 µM (inactive)	> 100 µM (inactive)	> 100 µM (inactive)	> 100 µM (inactive)	> 100 µM (inactive)	> 100 µM (inactive)	> 100 µM (inactive)	> 100 µM (inactive)	> 100 µM (inactive)	> 100 µM (inactive)	> 100 µM (inactive)	> 100 µM (inactive)	> 100 µM (inactive)	> 100 µM (inactive)	> 100 µM (inactive)	> 100 µM (inactive)	> 100 µM (inactive)	> 100 µM (inactive)	
O=Cc1c2c(cc3c1CC1(C3)Cc3cc4c(c(C=O)c3C1)CCC4)CCC2	35.1 µM (inactive)	14.4 µM (inactive)	32.6 µM (inactive)	41.3 µM (inactive)	22.3 µM (inactive)	45.3 µM (inactive)	16.6 µM (inactive)	11.3 µM (inactive)	21.8 µM (inactive)	30.3 µM (inactive)	> 100 µM (inactive)	17 µM (inactive)	32.5 µM (inactive)		17 µM (inactive)		20.9 µM (inactive)	14.7 µM (inactive)	46.1 µM (inactive)
CN(C)C(=O)N1N[C@H](c2ccccc2)[C@@H]1c1ccccc1		> 100 µM (inactive)	> 100 µM (inactive)	13.5 µM (inactive)	> 100 µM (inactive)	> 100 µM (inactive)	> 100 µM (inactive)	> 100 µM (inactive)	> 100 µM (inactive)	> 100 µM (inactive)	> 100 µM (inactive)	> 100 µM (inactive)	> 100 µM (inactive)	> 100 µM (inactive)	> 100 µM (inactive)	> 100 µM (inactive)	> 100 µM (inactive)	> 100 µM (inactive)	> 100 µM (inactive)
COc1ccc2c(c1)O[C@@H]1c3ccc(OC)cc3OC[C@H]21	22.9 µM (inactive)	6.11 µM (inactive)	26.9 µM (inactive)	22.4 µM (inactive)	37.8 µM (inactive)	23.2 µM (inactive)	52.4 µM (inactive)	16.6 µM (inactive)	17.9 µM (inactive)	29.2 µM (inactive)	25.4 µM (inactive)	37 µM (inactive)	35.6 µM (inactive)	29.6 µM (inactive)	27.2 µM (inactive)	54.3 µM (inactive)	29.2 µM (inactive)	27.7 µM (inactive)	
C=C(C)[C@]12CC(C)C34OC(/C=C\C=C\CCCCCCCCC)(O[C@@H]1[C@@H]3[C@@H]1O[C@]1(CO)[C@@H](O)[C@]1(O)C(=O)C(C)=C[C@@H]41)O2 (some centres not stated)	2.16 µM (inactive)	0.0103 µM (active)	13.1 µM (inactive)	14.8 µM (inactive)	10 µM (inactive)	14.4 µM (inactive)	5.61 µM (inactive)	2.14 µM (inactive)	0.026 µM (active)	< 0.012 µM (active)	6.35 µM (inactive)	14.8 µM (inactive)	0.000288 µM (active)		2.52 µM (inactive)	16.6 µM (inactive)	9.93 µM (inactive)	7.48 µM (inactive)	11.9 µM (inactive)
COC(=O)C1C=CCON2CCc3c(n(S(=O)(=O)c4ccccc4)c4ccccc34)C12 (configuration not stated)	34.1 µM (inactive)	17.9 µM (inactive)	44.5 µM (inactive)	> 67.5 µM (inactive)	> 49.4 µM (inactive)	> 90.4 µM (inactive)	65.3 µM (inactive)	26.9 µM (inactive)	33.3 µM (inactive)	50.1 µM (inactive)	> 87.1 µM (inactive)	> 55.3 µM (inactive)	> 78.3 µM (inactive)	57.3 µM (inactive)	32.5 µM (inactive)	> 46.6 µM (inactive)	> 31.6 µM (inactive)	39.3 µM (inactive)	
